Data on 36 molecules can be found in patent US20230150924A1, “NOVEL COMPOUND HAVING CANCER METASTASIS INHIBITORY ACTIVITY, PREPARATION METHOD THEREFOR, AND PHARMACEUTICAL COMPOSITION FOR INHIBITING CANCER METASTASIS AND INVASION OR TREATING COLORECTAL CANCER, COMPRISING COMPOUND” (CELLGENTEK CO., LTD., priority 2019, published 2023).

In one assay the test system is KAI1 promoter. In words: KAI1 promoter luciferase reporter assay in transfected Caco2 cells. It is filed as cell-based, human. Particulars: Homo sapiens, Caco-2, 16 h, 1 μM compound, 16 hours, transfected Caco2 cells, luciferase activity relative to DMSO control (=1); read-out: Relative KAI promoter activity. On the technique in general: Reporter assays use an easily measured gene product as a stand-in for the process of interest.

The test system of assay [1] is invasion of colorectal cancer cells. The assay is described as follows: In vivo relative invation (invasion; EV and KITENIN controls, no method described). The note with it: relative to EV (=1); KIT = KITENIN.

Turning to `O=C(CNC(=O)c1cc(C(F)(F)F)cc(C(F)(F)F)c1)c1ccccc1` [Example 29, N-(2-oxo-2-phenylethyl)-3,5-bis(trifluoromethyl)benzamide], in the assay with KAI1 promoter, the fold induction at 1 µM was determined as 0.9. Moreover, in assay [1], the “In vivo relative invation” value is on record as 1.026.
The corresponding values for `O=C(CNS(=O)(=O)c1ccccc1)c1ccc(N2CCOCC2)cc1` [Example 148, N-(2-(4-morpholinophenyl)-2-oxoethyl)benzenesulfonamide] are 1.44 and 1.844.
For `C=CCNC(=O)COc1ccccc1C(=O)NCC(=O)c1ccccc1` [Example 203, 2-(2-(allylamino)-2-oxoethoxy)-N-(2-oxo-2-phenylethyl)benzamide] the same measures were 1.05 and 1.178.
The corresponding values for `CCOC(=O)N1CCN(Cc2ccc(C(=O)NCC(=O)c3ccccc3)cc2)CC1` [Example 277, ethyl 4-(4-((2-oxo-2-phenylethyl)carbamoyl)benzyl)piperazine-1-carboxylate] are 1.3 and 1.126.
As for `CCCCN(CC)Cc1cccc(C(=O)NCC(=O)c2ccccc2)c1` [Example 249, 3-((butyl(ethyl)amino)methyl)-N-(2-oxo-2-phenylethyl)benzamide], the fold induction at 1 µM in the assay with KAI1 promoter worked out at 1.35. In assay [1], the “In vivo relative invation” value is on record as 1.113.
As to `CC(C)NC(=O)COc1ccccc1C(=O)NCC(=O)c1ccccc1` [Example 226, 2-(2-(isopropylamino)-2-oxoethoxy)-N-(2-oxo-2-phenylethyl)benzamide], in the assay on KAI1 promoter, the fold induction at 1 µM turned out to be 1.09. Moreover, the “In vivo relative invation” value in assay [1] is 1.349.
The corresponding values for `COc1ccc(S(=O)(=O)NCC(=O)c2ccc(Cl)cc2)cc1` [Example 71, N-(2-(4-chlorophenyl)-2-oxoethyl)-4-methoxybenzenesulfonamide] are 0.85 and 1.135.
The corresponding values for `O=C(CNC(=O)c1ccc(Cl)cc1)c1cccnc1` [Example 130, 4-chloro-N-(2-oxo-2-(pyridin-3-yl)ethyl)benzamide] are 1.32 and 0.9875.
For `CCCCC(=O)N1CCC(Oc2ccccc2C(=O)NCC(=O)c2ccccc2)CC1` [Example 172, N-(2-oxo-2-phenylethyl)-2-((1-pentanoylpiperidin-4-yl)oxy)benzamide] the same measures were 0.93 and 1.16.
For the molecule `CCCN(CCC)Cc1ccc(C(=O)NCC(=O)c2ccccc2)cc1` [Example 272, 4-((dipropylamino)methyl)-N-(2-oxo-2-phenylethyl)benzamide], the fold induction at 1 µM with KAI1 promoter worked out at 1.59. Besides, the “In vivo relative invation” value in assay [1] worked out at 1.23.
`CN(C)c1ccc(C(=O)CNC(=O)c2ccc(F)cc2F)cc1` [Example 105, N-(2-(4-(dimethylamino)phenyl)-2-oxoethyl)-2,4ifluorobenzamide]: in the assay with KAI1 promoter, the fold induction at 1 µM came out at 1.25. Further, the “In vivo relative invation” value in assay [1] is 1.079.
For `CC(C)(C)OC(=O)N1CCN(Cc2ccc(C(=O)NCC(=O)c3ccccc3)cc2)CC1` [Example 269, tert-butyl 4-(4-((2-oxo-2-phenylethyl)carbamoyl)benzyl) piperazine-1-carboxylate] the same measures were 1.38 and 1.163.
The corresponding values for `O=C(CNC(=O)C1CCCCC1)c1ccc(Cl)cc1` [Example 55, N-(2-(4-chlorophenyl)-2-oxoethyl)cyclohexanecarboxamide] are 0.67 and 1.179.
For the molecule `CS(=O)(=O)N1CCC(Oc2ccccc2C(=O)NCC(=O)c2ccccc2)CC1` [Example 183, 2-((1-(methylsulfonyl)piperidin-4-yl)oxy)-N-(2-oxo-2-phenylethyl)benzamide], the fold induction at 1 µM with KAI1 promoter is 0.96. Moreover, the “In vivo relative invation” value in assay [1] turned out to be 1.194.
The corresponding values for `CCCc1ccc(NC(=O)COc2ccccc2C(=O)NCC(=O)c2ccccc2)cc1` [Example 213, 2-(2-oxo-2-((4-propylphenyl)amino)ethoxy)-N-(2-oxo-2-phenylethyl)benzamide] are 1.14 and 1.209.
The corresponding values for `CC(=O)N1CCC(Oc2ccccc2C(=O)NCC(=O)c2ccccc2)CC1` [Example 182, 2-((1-acetylpiperidin-4-yl)oxy)-N-(2-oxo-2-phenylethyl)benzamide] are 0.93 and 1.095.
Regarding `C/C=C/C(=O)NCC(=O)c1cccnc1` [Example 134, (E)-N-(2-oxo-2-(pyridin-3-yl)ethyl)but-2-enamide], the fold induction at 1 µM in the assay with KAI1 promoter was found to be 1.09. Also, the “In vivo relative invation” value in assay [1] was 1.297.
For `COc1cc(OC)cc(C(=O)NCC(=O)c2ccccc2)c1` [Example 42, 3,5-dimethoxy-N-(2-oxo-2-phenylethyl)benzamide] the same measures were 1.12 and 1.525.
The corresponding values for `O=C(CNC(=O)c1cccc(Cl)c1Cl)c1ccc(Cl)cc1` [Example 80, 2,3-dichloro-N-(2-(4-chlorophenyl)-2-oxoethyl)benzamide] are 0.86 and 1.183.
`O=C(COc1ccccc1C(=O)NCC(=O)c1ccccc1)Nc1cc(C(F)(F)F)ccc1F` [Example 222, 2-(2-((2-fluoro-5-(trifluoromethyl)phenyl)amino)-2-oxoethoxy)-N-(2-oxo-2-phenylethyl)benzamide]: in the assay with KAI1 promoter, the fold induction at 1 µM worked out at 1.2. The “In vivo relative invation” value in assay [1] is 1.275.
The corresponding values for `Cc1cc(C)cc(C(=O)NCC(=O)c2ccc(Cl)cc2)c1` [Example 83, N-(2-(4-chlorophenyl)-2-oxoethyl)-3,5-dimethylbenzamide] are 0.8 and 1.171.
The corresponding values for `CC(C)N(C)Cc1cccc(C(=O)NCC(=O)c2ccccc2)c1` [Example 233, 3-((isopropyl(methyl)amino)methyl)-N-(2-oxo-2-phenylethyl)benzamide] are 1.15 and 1.026.
The corresponding values for `O=C(CNC(=O)c1ccccc1CN1CCCc2ccccc21)c1ccccc1` [Example 297, 2-((3,4-dihydroquinolin-1(2H)-yl)methyl)-N-(2-oxo-2-phenylethyl)benzamide] are 1.33 and 1.231.
As to `CN(C)c1ccc(C(=O)CNC(=O)c2cccc(Cl)c2)cc1` [Example 94, 3-chloro-N-(2-(4-(dimethylamino)phenyl)-2-oxoethyl)benzamide], the fold induction at 1 µM in the assay on KAI1 promoter was 1.81. Also, in assay [1], the “In vivo relative invation” value is recorded as 1.096.
With `O=C(CNC(=O)c1ccccc1OC1CCN(C(=O)c2ccc(OC(F)(F)F)cc2)CC1)c1ccccc1` [Example 199, N-(2-oxo-2-phenylethyl)-2-((1-(4-(trifluoromethoxy)benzoyl)piperidin-4-yl)oxy)benzamide], the fold induction at 1 µM in the assay on KAI1 promoter came to 0.97. In addition, the “In vivo relative invation” value in assay [1] was 1.105.
For `O=C(CNC(=O)c1ccccc1OC(F)(F)F)c1ccc(Cl)cc1` [Example 84, N-(2-(4-chlorophenyl)-2-oxoethyl)-2-(trifluoromethoxy)benzamide] the same measures were 0.94 and 1.181.
For `O=C(CNC(=O)c1ccccc1C(F)(F)F)c1ccccc1` [Example 30, N-(2-oxo-2-phenylethyl)-2-(trifluoromethyl)benzamide] the same measures were 1.41 and 0.7631.
The corresponding values for `O=C(CNC(=O)C1CCCCC1)c1ccccc1` [Example 15, N-(2-oxo-2-phenylethyl)cyclohexanecarboxamide] are 1.74 and 1.17.
As for `CN(C)c1ccc(C(=O)CNC(=O)c2ccc(OC(F)(F)F)cc2)cc1` [Example 119, N-(2-(4-(dimethylamino)phenyl)-2-oxoethyl)-4-(trifluoromethoxy)benzamide], the fold induction at 1 µM in the assay on KAI1 promoter amounted to 1.35. Moreover, the “In vivo relative invation” value in assay [1] is given as 1.203.
For `O=C(CNC(=O)c1ccccc1F)c1ccc(Cl)cc1` [Example 44, N-(2-(4-chlorophenyl)-2-oxoethyl)-2-fluorobenzamide] the same measures were 0.98 and 0.9752.
The corresponding values for `O=C(CNC(=O)c1ccccc1OC1CCN(S(=O)(=O)c2ccc(Cl)cc2)CC1)c1ccccc1` [Example 186, 2-((1-((4-chlorophenyl)sulfonyl)piperidin-4-yl)oxy)-N-(2-oxo-2-phenylethyl)benzamide] are 1.06 and 1.145.
Regarding `CN(Cc1ccc(C(=O)NCC(=O)c2ccccc2)cc1)c1ccccc1` [Example 262, 4-((methyl (phenyl)amino)methyl)-N-(2-oxo-2-phenylethyl)benzamide], the fold induction at 1 µM in the assay with KAI1 promoter stood at 1.54. In assay [1], the “In vivo relative invation” value is given as 1.09.
For `CCCCN(CCO)Cc1ccc(C(=O)NCC(=O)c2ccccc2)cc1` [Example 268, 4-((butyl(2-hydroxyethyl)amino)methyl)-N-(2-oxo-2-phenylethyl)benzamide] the same measures were 1.6 and 1.22.
For `COc1cccc(C(=O)CNS(=O)(=O)c2ccccc2)c1` [Example 129, N-(2-(3-methoxyphenyl)-2-oxoethyl)benzenesulfonamide] the same measures were 1.3 and 1.298.
The corresponding values for `O=C(CNS(=O)(=O)c1ccc(Cl)cc1)c1ccc(Cl)cc1` [Example 69, 4-chloro-N-(2-(4-chlorophenyl)-2-oxoethyl)benzenesulfonamide] are 0.84 and 1.095.
On to `O=C(CNC(=O)c1cccc(C(F)(F)F)c1)c1ccc(Cl)cc1` [Example 74, N-(2-(4-chlorophenyl)-2-oxoethyl)-3-(trifluoromethyl)benzamide], for which, in the assay on KAI1 promoter, the fold induction at 1 µM was found to be 0.78. The “In vivo relative invation” value in assay [1] is given as 1.17.
